From US11208400B2, “Substituted 6-(1H-pyrazol-1-yl)pyrimidin-4-amine derivatives and uses thereof” (Bayer Aktiengesellschaft, priority 2016, dated 2021)
pIC50: −log10 of the molar value.

These molecules were tested against T1, human Npt2a (Homo sapiens, UniProt Q06495) (assay: Npt2a activity cell based assay, membrane potential dye, CHO T-REx hNpt2a cells). Conditions: doxycycline-induced, depolarization by sodium phosphate influx, average or median values if tested more than once.
T1 construct: expressed in transfected cells
T1 sequence (Q06495 1-639): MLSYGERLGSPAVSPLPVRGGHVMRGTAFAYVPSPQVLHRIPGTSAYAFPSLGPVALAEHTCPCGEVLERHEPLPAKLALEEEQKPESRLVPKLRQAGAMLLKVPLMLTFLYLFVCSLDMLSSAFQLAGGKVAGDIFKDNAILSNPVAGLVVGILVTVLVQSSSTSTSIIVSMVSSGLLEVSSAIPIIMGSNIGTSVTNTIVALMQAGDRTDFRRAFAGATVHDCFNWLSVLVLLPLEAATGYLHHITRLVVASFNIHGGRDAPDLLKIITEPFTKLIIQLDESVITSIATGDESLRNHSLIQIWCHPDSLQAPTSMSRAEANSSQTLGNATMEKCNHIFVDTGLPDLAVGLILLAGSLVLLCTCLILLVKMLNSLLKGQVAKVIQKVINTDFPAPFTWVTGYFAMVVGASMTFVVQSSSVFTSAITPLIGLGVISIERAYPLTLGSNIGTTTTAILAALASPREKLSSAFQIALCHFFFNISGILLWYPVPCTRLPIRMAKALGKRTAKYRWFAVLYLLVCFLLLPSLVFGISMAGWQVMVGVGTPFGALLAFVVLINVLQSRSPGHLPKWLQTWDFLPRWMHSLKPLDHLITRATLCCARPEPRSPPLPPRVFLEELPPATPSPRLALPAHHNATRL
How it was run: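 Cells were doxycycline-induced CHO T-REx hNpt2a, dye-loaded and pretreated 5 min at RT with 1 nM–50 μM compound in Na-free pH 7.4 buffer. IC50 was fit to the post/pre-trigger fluorescence ratio.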

SMILES | pIC50
CCOC(=O)c1c(C)nn(-c2cc(Nc3c(C)c(-c4ccc(Cl)cc4)nn3CC3CC3)ncn2)c1C [Example 314, ethyl 1-(6-{[3-(4-chlorophenyl)-1-(cyclopropylmethyl)-4-methyl-1H-pyrazol-5-yl]amino}pyrimidin-4-yl)-3,5-dimethyl-1H-pyrazole-4-carboxylate] | 8.05
COc1ccc(-c2nn(C)c(Nc3cc(-n4nc(C)c(C(F)(F)F)c4C)ncn3)c2C)cn1 [Example 494, 6-[3,5-dimethyl-4-(trifluoromethyl)-1H-pyrazol-1-yl]-N-[3-(6-methoxypyridin-3-yl)-1,4-dimethyl-1H-pyrazol-5-yl]pyrimidin-4-amine] | 6.72
COc1c(Nc2cc(-n3nc(C)c(OC)c3C)ncn2)nn(C)c1-c1ccc(C#N)cc1 [Example 493, 4-(4-methoxy-3-{[6-(4-methoxy-3,5-dimethyl-1H-pyrazol-1-yl)pyrimidin-4-yl]amino}-1-methyl-1H-pyrazol-5-yl)benzonitrile] | 6.20
COc1c(-c2ccc(F)cc2)nn(CC2CC2)c1Nc1cc(-n2nc(C)c(-c3nnc(C)o3)c2C)ncn1 [Example 450, N-[1-(cyclopropylmethyl)-3-(4-fluorophenyl)-4-methoxy-1H-pyrazol-5-yl]-6-[3,5-dimethyl-4-(5-methyl-1,3,4-oxadiazol-2-yl)-1H-pyrazol-1-yl]pyrimidin-4-amine] | 6.18
Cc1nn(-c2cc(Nc3nn(C)c(-c4ccc(C#N)cc4)c3C)ncn2)c(C)c1Cl [Example 196, 4-(3-{[6-(4-chloro-3,5-dimethyl-1H-pyrazol-1-yl)pyrimidin-4-yl]amino}-1,4-dimethyl-1H-pyrazol-5-yl)benzonitrile] | 8.70
CCOC(=O)c1c(C)nn(-c2cc(Nc3c(OC)c(-c4ccc(F)cc4)nn3CC3CC3)ncn2)c1C [Example 319, ethyl 1-(6-{[1-(cyclopropylmethyl)-3-(4-fluorophenyl)-4-methoxy-1H-pyrazol-5-yl]amino}pyrimidin-4-yl)-3,5-dimethyl-1H-pyrazole-4-carboxylate] | 7.09
COC(C)c1c(C)nn(-c2cc(Nc3c(C)c(-c4ccc(F)cc4)nn3CC3CC3)ncn2)c1C (racemic) [Example 326, (±)-N-[1-(cyclopropylmethyl)-3-(4-fluorophenyl)-4-methyl-1H-pyrazol-5-yl]-6-{4-[1-methoxyethyl]-3,5-dimethyl-1H-pyrazol-1-yl}pyrimidin-4-amine (Racemic)] | 8.40
CCOC(=O)c1c(C)nn(-c2cc(Nc3nn(C)c(-c4ccc(Cl)cc4)c3C)ncn2)c1C [Example 353, ethyl 1-(6-{[5-(4-chlorophenyl)-1,4-dimethyl-1H-pyrazol-3-yl]amino}pyrimidin-4-yl)-3,5-dimethyl-1H-pyrazole-4-carboxylate] | 8.30
Cc1cc(C)n(-c2cc(Nc3c(Cl)c(-c4ccc(F)cc4F)nn3C)ncn2)n1 [Example 50, N-[4-chloro-3-(2,4-difluorophenyl)-1-methyl-1H-pyrazol-5-yl]-6-(3,5-dimethyl-1H-pyrazol-1-yl)pyrimidin-4-amine] | 6.80
CCc1c(Nc2cc(-n3nc(C)cc3C)ncn2)nn(CCOCc2ccccc2)c1-c1ccc(F)cc1 [Example 31, N-{1-[2-(benzyloxy)ethyl]-4-ethyl-5-(4-fluorophenyl)-1H-pyrazol-3-yl}-6-(3,5-dimethyl-1H-pyrazol-1-yl)pyrimidin-4-amine] | 6.17
CCc1c(-c2ccc(F)cc2)n[nH]c1Nc1cc(-n2nc(C)cc2C(F)F)ncn1 [Example 2, 6-[5-(difluoromethyl)-3-methyl-1H-pyrazol-1-yl]-N-[4-ethyl-3-(4-fluorophenyl)-1H-pyrazol-5-yl]pyrimidin-4-amine] | 7.92
CCOC(=O)c1c(Cl)c(C)nn1-c1cc(Nc2c(Cl)c(-c3ccc(F)cc3)nn2C)ncn1 [Example 448, ethyl 4-chloro-1-(6-{[4-chloro-3-(4-fluorophenyl)-1-methyl-1H-pyrazol-5-yl]amino}pyrimidin-4-yl)-3-methyl-1H-pyrazole-5-carboxylate] | 6.36
Cc1cc(C)n(-c2cc(Nc3nn(C)c(-c4ccc(C(F)(F)F)nc4)c3C)ncn2)n1 [Example 559, 6-(3,5-dimethyl-1H-pyrazol-1-yl)-N-{1,4-dimethyl-5-[6-(trifluoromethyl)pyridin-3-yl]-1H-pyrazol-3-yl}pyrimidin-4-amine] | 6.96
COc1c(C)nn(-c2cc(Nc3c(C)nn(-c4ccc(F)cc4)c3C)ncn2)c1C [Example 463, N-[1-(4-fluorophenyl)-3,5-dimethyl-1H-pyrazol-4-yl]-6-(4-methoxy-3,5-dimethyl-1H-pyrazol-1-yl)pyrimidin-4-amine] | 7.47
CC(=O)c1c(C)nn(-c2cc(Nc3c(C)c(-c4ccc(C#N)cc4)nn3CC3CC3)ncn2)c1C [Example 321, 4-[5-{[6-(4-acetyl-3,5-dimethyl-1H-pyrazol-1-yl)pyrimidin-4-yl]amino}-1-(cyclopropylmethyl)-4-methyl-1H-pyrazol-3-yl]benzonitrile] | 7.80
Cc1nn(-c2cc(Nc3c(C)c(-c4ccc(OC(F)(F)F)cc4)nn3CC3CC3)ncn2)c(C)c1Cl [Example 310, 6-(4-chloro-3,5-dimethyl-1H-pyrazol-1-yl)-N-{1-(cyclopropylmethyl)-4-methyl-3-[4-(trifluoromethoxy)phenyl]-1H-pyrazol-5-yl}pyrimidin-4-amine] | 7.68
CCc1c(Nc2cc(-n3nc(C)c(Cl)c3C(C)(C)O)ncn2)nn(C)c1-c1ccc(F)cc1 [Example 195, 2-[4-chloro-1-(6-{[4-ethyl-5-(4-fluorophenyl)-1-methyl-1H-pyrazol-3-yl]amino}pyrimidin-4-yl)-3-methyl-1H-pyrazol-5-yl]propan-2-ol] | 8.52
CCOC(=O)c1c(C)nn(-c2cc(Nc3c(C)nn(-c4ccc(C#N)cc4)c3C)ncn2)c1C [Example 219, ethyl 1-(6-{[1-(4-cyanophenyl)-3,5-dimethyl-1H-pyrazol-4-yl]amino}pyrimidin-4-yl)-3,5-dimethyl-1H-pyrazole-4-carboxylate] | > 8.80
Cc1cc(C)n(-c2cc(Nc3c(C)c(-c4ccc(Cl)cc4)nn3CC3CC3)ncn2)n1 [Example 312, N-[3-(4-chlorophenyl)-1-(cyclopropylmethyl)-4-methyl-1H-pyrazol-5-yl]-6-(3,5-dimethyl-1H-pyrazol-1-yl)pyrimidin-4-amine] | 8.00
COc1c(C)nn(-c2cc(Nc3nn(C)c(-c4ccc(C#N)cc4)c3C)ncn2)c1C [Example 435, 4-(3-{[6-(4-methoxy-3,5-dimethyl-1H-pyrazol-1-yl)pyrimidin-4-yl]amino}-1,4-dimethyl-1H-pyrazol-5-yl)benzonitrile] | 8.30
Cc1cc(C(F)F)n(-c2cc(Nc3nn(C)c(-c4ccc(F)cc4)c3OC(F)F)ncn2)n1 [Example 412, N-[4-(difluoromethoxy)-5-(4-fluorophenyl)-1-methyl-1H-pyrazol-3-yl]-6-[5-(difluoromethyl)-3-methyl-1H-pyrazol-1-yl]pyrimidin-4-amine] | 7.92
CCOC(=O)c1cc(C)nn1-c1cc(Nc2nn(C)c(-c3ccc(F)cc3)c2Cl)ncn1 [Example 447, ethyl 1-(6-{[4-chloro-5-(4-fluorophenyl)-1-methyl-1H-pyrazol-3-yl]amino}pyrimidin-4-yl)-3-methyl-1H-pyrazole-5-carboxylate] | 6.25
Cc1cc(C)n(-c2cc(Nc3c(C)c(-c4ccc(C#N)cc4)nn3CC(F)F)ncn2)n1 [Example 248, 4-[1-(2,2-difluoroethyl)-5-{[6-(3,5-dimethyl-1H-pyrazol-1-yl)pyrimidin-4-yl]amino}-4-methyl-1H-pyrazol-3-yl]benzonitrile] | 6.74
Cc1nn(-c2cc(Nc3c(C)c(-c4ccc(F)cc4)nn3CC3CC3)ncn2)c2c1C(C)(O)CC2 (racemic) [Example 283, (±)-1-(6-{[1-(cyclopropylmethyl)-3-(4-fluorophenyl)-4-methyl-1H-pyrazol-5-yl]amino}pyrimidin-4-yl)-3,4-dimethyl-1,4,5,6-tetrahydrocyclopenta[c]pyrazol-4-ol (Racemate)] | 7.68
Cc1nn(-c2cc(Nc3n[nH]c(-c4ccccc4)c3Cl)ncn2)c(C)c1Cl [Example 54, 6-(4-chloro-3,5-dimethyl-1H-pyrazol-1-yl)-N-(4-chloro-5-phenyl-1H-pyrazol-3-yl)pyrimidin-4-amine] | 7.04
Cc1nn(-c2cc(Nc3c(C)c(-c4ccc(OC(F)(F)F)cc4)nn3C)ncn2)c(C)c1C(C)(C)O [Example 377, 2-{1-[6-({1,4-dimethyl-3-[4-(trifluoromethoxy)phenyl]-1H-pyrazol-5-yl}amino)pyrimidin-4-yl]-3,5-dimethyl-1H-pyrazol-4-yl}propan-2-ol] | 6.69
Cc1nn(-c2cc(Nc3c(C)c(-c4ccc(C(F)(F)F)nc4)nn3CC3CC3)ncn2)c(C)c1Cl [Example 534, 6-(4-chloro-3,5-dimethyl-1H-pyrazol-1-yl)-N-{1-(cyclopropylmethyl)-4-methyl-3-[6-(trifluoromethyl)pyridin-3-yl]-1H-pyrazol-5-yl}pyrimidin-4-amine] | 5.82
